Measurements reported in paper PMC5003771 (Molecular microbiology, 2015).

Assays:
[1] = molecular target: CabPA (Streptococcus mutans, UniProt Q8DT33); assay: DRaCALA, […]-labelled c-di-AMP on nitrocellulose; assay type: binding
[2] = molecular target: CabPB (Streptococcus mutans, UniProt Q8DSR3); assay: DRaCALA, […]-labelled c-di-AMP on nitrocellulose; assay type: binding

Question: Which results are given for `Nc1ncnc2c1ncn2[C@@H]1O[C@@H]2COP(=O)(O)O[C@H]3[C@@H](O)[C@H](n4cnc5c(N)ncnc54)O[C@@H]3COP(=O)(O)O[C@H]2[C@H]1O` [c-di-AMP]?
Answer: Kd [1]: 7.8 ± 0.3 µM; Kd [2]: 1.2 ± 0.2 µM
